According to patent US11000033B2, “Ketone or oxime compound, and herbicide” (NISSAN CHEMICAL CORPORATION, priority 2014, dated 2021):

Tests used:
Type in all cases: in vivo
[1] = system: Galium spurium; experiment: Test Example 4: herbicidal effect by soil treatment (symbol Q); settings: application herbicide amount 320 g/ha
How it was run: (§1)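 Seeds were sown in sterilized diluvial soil, covered with about 1.5 cm of soil, and the soil surface was sprayed with a water-diluted emulsion of the compound at a predetermined rate. Plants grew in a greenhouse at 25° C. to 30° C.; effects were scored visually 3 weeks after application.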

[2] = system: Lolium multiflorum Lam.; experiment: Test Example 5: herbicidal effect by foliage application, plastic box (symbol K); settings: 320 g/ha, 3 weeks after application
How it was run: (§2)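 Post-emergence spray; diluvial soil (sterilized), ~1.5 cm seed cover; greenhouse 25–30° C; 14-day-old plants; water-diluted emulsion at predetermined dose; visual score at 3 wk post-treatment.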

[3] = system: transplanted rice plant; experiment: Test Example 1: effect on crop, application before weed generation in submerged conditions (symbol a); settings: application herbicide amount 320 g/ha
How it was run: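 Rice at 2.5 leaf stage transplanted into submerged soil (4 cm depth) sown with three weed species; herbicide applied before weed emergence.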

[4] = system: Veronica persica; experiment: Test Example 4: herbicidal effect by soil treatment (symbol R); settings: application herbicide amount 320 g/ha
How it was run: as §1

[5] = system: Galium spurium; experiment: Test Example 5: herbicidal effect by foliage application, plastic box (symbol Q); settings: 320 g/ha, 3 weeks after application
How it was run: as §2

[6] = system: Stellaria media; experiment: Test Example 4: herbicidal effect by soil treatment (symbol P); settings: application herbicide amount 320 g/ha
How it was run: as §1

[7] = system: directly sowed rice plant; experiment: Test Example 3: effect on crop by foliage application, Wagner pot (symbol b); settings: application herbicide amount 320 g/ha, Table 24
How it was run: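 Wagner pot (1/10000 are), alluvial soil, submerged 0.1–0.5 cm; sown E. crus-galli var. crus-galli, L. chinensis, C. difformis, rice; greenhouse 25–30 °C.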

[8] = system: Scirpus juncoides; experiment: Test Example 1: herbicidal activity, application before weed generation in submerged conditions (symbol B); settings: application herbicide amount 320 g/ha
How it was run: (§3)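 In a flooded pot test with alluvial soil, the emulsion-formulated compound was diluted with water to a predetermined amount and applied to the floodwater immediately on the sowing day. Pots were held in a greenhouse at 25–30 °C for 3 weeks before each weed was rated.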

[9] = system: rapeseed; experiment: Test Example 5: effect on crop by foliage application, plastic box (symbol g); settings: 320 g/ha, 3 weeks after application
How it was run: (§4)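 Diluvial soil, sterilized and boxed (21 × 13 × 7 cm), received spot-sown seed covered by about 1.5 cm soil; plants were then greenhouse-grown at 25–30° C.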

[10] = system: Apera spica-venti; experiment: Test Example 4: herbicidal effect by soil treatment (symbol L); settings: application herbicide amount 320 g/ha
How it was run: as §1

[11] = system: Echinochloa oryzacola Vasing.; experiment: Test Example 1: herbicidal activity, application before weed generation in submerged conditions (symbol A); settings: application herbicide amount 320 g/ha
How it was run: as §3

[12] = system: Setaria viridis; experiment: Test Example 4: herbicidal effect by soil treatment (symbol G); settings: application herbicide amount 320 g/ha
How it was run: as §1

[13] = system: Monochoria vaginalis; experiment: Test Example 1: herbicidal activity, application before weed generation in submerged conditions (symbol C); settings: application herbicide amount 320 g/ha
How it was run: as §3

[14] = system: Digitaria ciliaris; experiment: Test Example 5: herbicidal effect by foliage application, plastic box (symbol F); settings: 320 g/ha, 3 weeks after application
How it was run: as §2

[15] = system: Avena fatua; experiment: Test Example 5: herbicidal effect by foliage application, plastic box (symbol I); settings: 320 g/ha, 3 weeks after application
How it was run: as §2

[16] = system: Abutilon theophrasti; experiment: Test Example 4: herbicidal effect by soil treatment (symbol M); settings: application herbicide amount 320 g/ha
How it was run: as §1

[17] = system: Apera spica-venti; experiment: Test Example 5: herbicidal effect by foliage application, plastic box (symbol L); settings: 320 g/ha, 3 weeks after application
How it was run: as §2

[18] = system: wheat; experiment: Test Example 5: effect on crop by foliage application, plastic box (symbol e); settings: 320 g/ha, 3 weeks after application
How it was run: as §4

| SMILES | Q: Galium spurium, herbicidal effect grade [1] | K: Lolium multiflorum Lam., herbicidal effect grade [2] | a (transplanted rice plant) effect on crop grade [3] | R: Veronica persica, herbicidal effect grade [4] | Q: Galium spurium, herbicidal effect grade [5] | P: Stellaria media, herbicidal effect grade [6] | b (directly sowed rice plant) effect on crop grade [7] | B (Scirpus juncoides) herbicidal effect grade [8] | g: rapeseed, effect on crop grade [9] | L: Apera spica-venti, herbicidal effect grade [10] | A (Echinochloa oryzacola Vasing.) herbicidal effect grade [11] | G: Setaria viridis, herbicidal effect grade [12] | C (Monochoria vaginalis) herbicidal effect grade [13] | F: Digitaria ciliaris, herbicidal effect grade [14] | I: Avena fatua, herbicidal effect grade [15] | M: Abutilon theophrasti, herbicidal effect grade [16] | L: Apera spica-venti, herbicidal effect grade [17] | e: wheat, effect on crop grade [18] | further results |
| --- | --- | --- | --- | --- | --- | --- | --- | --- | --- | --- | --- | --- | --- | --- | --- | --- | --- | --- | --- |
| CCC(CC1CC(O)=C(c2c(C)cc(-c3ccccc3)cc2OC)C1=O)=NOC (mixture of isomers) [13-004] | 0 (Herbicidal ratio of 5% or lower (almost no effect)) | 5 (Herbicidal ratio of 90% or more (almost completely withered)) | 5 (Herbicidal ratio of 90% or more (almost completely withered)) | 3 (Herbicidal ratio of 40% or higher and lower than 70%) | 4 (Herbicidal ratio of 70% or higher and lower than 90%) | 1 (Herbicidal ratio of 5% or higher and lower than 20%) | 5 (Herbicidal ratio of 90% or more (almost completely withered)) | 5 (Herbicidal ratio of 90% or more (almost completely withered)) | 4 (Herbicidal ratio of 70% or higher and lower than 90%) | 5 (Herbicidal ratio of 90% or more (almost completely withered)) | 5 (Herbicidal ratio of 90% or more (almost completely withered)) | 5 (Herbicidal ratio of 90% or more (almost completely withered)) | 5 (Herbicidal ratio of 90% or more (almost completely withered)) | 5 (Herbicidal ratio of 90% or more (almost completely withered)) | 5 (Herbicidal ratio of 90% or more (almost completely withered)) | 0 (Herbicidal ratio of 5% or lower (almost no effect)) | 5 (Herbicidal ratio of 90% or more (almost completely withered)) | 5 (Herbicidal ratio of 90% or more (almost completely withered)) |  |
| Cc1cc(Br)cc(C)c1C1=C(O)CC(CC(=O)C(C)C)C1=O (racemic) [10-003] |  | 4 (Herbicidal ratio of 70% or higher and lower than 90%) | 3 (Herbicidal ratio of 40% or higher and lower than 70%) |  | 0 (Herbicidal ratio of 5% or lower (almost no effect)) |  | 5 (Herbicidal ratio of 90% or more (almost completely withered)) | 0 (Herbicidal ratio of 5% or lower (almost no effect)) | 0 (Herbicidal ratio of 5% or lower (almost no effect)) |  | 1 (Herbicidal ratio of 5% or higher and lower than 20%) |  | 0 (Herbicidal ratio of 5% or lower (almost no effect)) | 3 (Herbicidal ratio of 40% or higher and lower than 70%) | 3 (Herbicidal ratio of 40% or higher and lower than 70%) |  | 3 (Herbicidal ratio of 40% or higher and lower than 70%) | 0 (Herbicidal ratio of 5% or lower (almost no effect)) | Herbicidal effect grade, Q: Galium spurium [1]: 0 (Herbicidal ratio of 5% or lower (almost no effect)); Herbicidal effect grade, R: Veronica persica [4]: 0 (Herbicidal ratio of 5% or lower (almost no effect)); Herbicidal effect grade, P: Stellaria media [6]: 0 (Herbicidal ratio of 5% or lower (almost no effect)); Herbicidal effect grade, L: Apera spica-venti [10]: 3 (Herbicidal ratio of 40% or higher and lower than 70%); Herbicidal effect grade, G: Setaria viridis [12]: 4 (Herbicidal ratio of 70% or higher and lower than 90%); Herbicidal effect grade, M: Abutilon theophrasti [16]: 0 (Herbicidal ratio of 5% or lower (almost no effect)) |
| COc1cc(Br)cc(C)c1C1=C(O)CC(CC(=O)C2CC2)C1=O (racemic) [14-001] | 0 (Herbicidal ratio of 5% or lower (almost no effect)) | 5 (Herbicidal ratio of 90% or more (almost completely withered)) | 5 (Herbicidal ratio of 90% or more (almost completely withered)) | 0 (Herbicidal ratio of 5% or lower (almost no effect)) | 0 (Herbicidal ratio of 5% or lower (almost no effect)) | 0 (Herbicidal ratio of 5% or lower (almost no effect)) | 5 (Herbicidal ratio of 90% or more (almost completely withered)) | 3 (Herbicidal ratio of 40% or higher and lower than 70%) | 4 (Herbicidal ratio of 70% or higher and lower than 90%) | 5 (Herbicidal ratio of 90% or more (almost completely withered)) | 4 (Herbicidal ratio of 70% or higher and lower than 90%) | 5 (Herbicidal ratio of 90% or more (almost completely withered)) | 3 (Herbicidal ratio of 40% or higher and lower than 70%) | 5 (Herbicidal ratio of 90% or more (almost completely withered)) | 5 (Herbicidal ratio of 90% or more (almost completely withered)) | 0 (Herbicidal ratio of 5% or lower (almost no effect)) | 5 (Herbicidal ratio of 90% or more (almost completely withered)) | 4 (Herbicidal ratio of 70% or higher and lower than 90%) |  |
| CCC(=O)CC1CC(O)=C(c2c(C)cc(Br)cc2OC)C1=O (racemic) [14-002] | 0 (Herbicidal ratio of 5% or lower (almost no effect)) | 5 (Herbicidal ratio of 90% or more (almost completely withered)) | 2 (Herbicidal ratio of 20% or higher and lower than 40%) | 0 (Herbicidal ratio of 5% or lower (almost no effect)) | 0 (Herbicidal ratio of 5% or lower (almost no effect)) | 0 (Herbicidal ratio of 5% or lower (almost no effect)) | 5 (Herbicidal ratio of 90% or more (almost completely withered)) | 1 (Herbicidal ratio of 5% or higher and lower than 20%) | 4 (Herbicidal ratio of 70% or higher and lower than 90%) | 5 (Herbicidal ratio of 90% or more (almost completely withered)) | 4 (Herbicidal ratio of 70% or higher and lower than 90%) | 5 (Herbicidal ratio of 90% or more (almost completely withered)) | 2 (Herbicidal ratio of 20% or higher and lower than 40%) | 5 (Herbicidal ratio of 90% or more (almost completely withered)) | 5 (Herbicidal ratio of 90% or more (almost completely withered)) | 0 (Herbicidal ratio of 5% or lower (almost no effect)) | 5 (Herbicidal ratio of 90% or more (almost completely withered)) | 3 (Herbicidal ratio of 40% or higher and lower than 70%) |  |
